The nature of data set [1]: Plasma protein binding, equilibrium dialysis (rat). The format is in vitro ADME. The note with it: 1 μM, 6 hours dialysis. Here is the method:
Preparation of 100 mM sodium phosphate and 150 mM NaCl buffer (PBS). A basic solution was prepared by dissolving 14.2 g/L Na2HPO4 and 8.77 g/L NaCl in deionized water and the solution could be stored at 4° C. for up to 7 days. An acidic solution was prepared by dissolving 12.0 g/L NaH2PO4 and 8.77 g/L NaCl in deionized water and the solution could be stored at 4° C. for up to 7 days. The basic solution was titrated with the acidic solution to pH 7.4 and store at 4° C. for up to 7 days. pH was checked on the day of experiment and was adjusted if outside specification of 7.4±0.1.
Thawing of the frozen plasma (stored at −80° C.). Frozen plasma was thawed immediately at room temperature. The plasma was centrifuged at 3,220 g for 10 minutes to remove clots and supernatant was collected into a fresh tube. The pH of the plasma was checked and recorded. Note: a). Only use plasma that has been thawed no more than twice since arrival. b). Only use plasma within the range of pH 7 to pH 8.
Preparation of working solutions. The working solutions of test compound and control compound ketoconazole were prepared in DMSO at the concentration of 200 μM. And then 3 μL of working solutions was removed to mix with 597 μL of rat plasma to achieve a final concentration of 1 μM (0.5% DMSO). Plasma samples were vortexed thoroughly.
Preparation of dialysis membranes. […]
Background: In equilibrium dialysis free small molecules cross a membrane that holds back macromolecules.

Data set [2] can be described thus: Rat CNS exposure (plasma, CSF, brain). The format is in vivo, male SD rats. Conditions: SC 1 mg/kg, 1.00 h. Here is the method: These rats were typically about 6-8 weeks old, weighing 200 g to 300 g. Animals were fasted overnight and free access to food 4 hours after dosing. A required volume of vehicle was added to reach the target concentration of the test article and vehicle component to prepare for the dosing. The dosing vehicle was PEG400 or 30% PEG400 in saline for IV, or 0.5% methylcellulose in water for PO. For IV dosing, the animals were administered intravenously via tail vein. For PO dosing, the animals were administered via oral gavage. After dosing, blood sample was collected (˜0.2 mL per time point) through jugular vein or heart puncture. Blood of each sample was transferred into plastic micro centrifuge tubes containing EDTA-K2. Collection tubes with blood samples and anticoagulant were inverted several times for proper mixing of the tube contents and then placed on wet ice. The blood samples were centrifuged at 2000 g for 5 minutes at 4° C. to obtain plasma which was stored in a freezer at −75±15° C. prior to analysis. Samples were analyzed using LC-MS/MS. WinNonlin were used for pharmacokinetic calculations.
For CSF sampling, after anesthesia, the foramen magnum was exposed, and a syringe was used with a venoclysis needle to sample the CSF. The CSF samples were stored in polypropylene tubes, then stored in a freezer at −75±15° C. prior to analysis.
For brain sampling, the rats were fully exsanguinated by using a risen of carbon dioxide prior to brain collection. Brain samples were then collected at adopted time point, quick frozen and kept at −75±15° C. All brain samples were weighted and homogenated with PBS by brain weight (g) to PBS volume (mL) ratio 1:3 before analysis. The actual concentration is the detected value multiplied by the dilution factor.

Each structure is given as a SMILES string.

Regarding `Cc1ncccc1[C@@H](O)CNC(C)(C)C` [Compound 03-115], the “PPB (rat), Percent of Unbound Fractions” value in data set [1] is on record as 97%. Also, in data set [2], the “Concentration, Brain” value was found to be 142 ng/g; the “Concentration, CSF” value stood at 0.0562 µg/mL; the “Concentration, Plasma” value is 0.149 µg/mL.

Values taken from patent US12448352B2, “Beta adrenergic agonist and methods of using the same” (Curasen Therapeutics, Inc., priority 2019, dated 2025).
